Data as given in patent publication US10238619B1, “Composition and method of using the same” (priority 2017, dated 2019).

Legend:
[1] = system: persistent (biofilm) form of Borrelia garinii; experiment: effect on biofilm-like colonies, crystal violet staining; type: cell-based, Borrelia garinii CIP103362; conditions: for efficacy against biofilm compared with combinations (Mix 1 and Mix 2): individual ingredient 0.075 mg/ml; for susceptibility of biofilm: 0.3 mg/ml, 72 hours
Experimental: (§1) Two Borrelia species, namely, Borrelia burgdorferi and Borrelia garinii were tested in this study. Low passage isolates of the B31 strain of B. burgdorferi and CIP103362 strain of B. garinii were obtained from the American Type Culture Collection (Manassas, Va.). The stocks of both species were cultured in commonly used conditions, i.e. medium such as Barbour-Stoner-Kelly H (BSK-H) supplemented with 6% rabbit serum (Sigma, St Louis, Mo.) without antibiotics at 33° C. with 5% CO2, in sterile screw-cap 15 mL polypropylene tubes with or without gentile shaking depends on type of experiment. B31 strain is an isolate from Ixodes dammini whereas CIP103362 strain is an isolate from Ixodes ricinus. Both strains are well known human pathogenic factors of Lyme disease. So far, Borrelia burgdorferi has been found in ticks from North America and Eurasia, while Borrelia garinii only in ticks in Eurasia.
(§2) The strains of B. burgdorferi and B. garinii were prepared for testing as described in the art (Sapi et al., 2011). Briefly, the strains were activated from original cryobank vials and inoculated into 10 mL BSK-H compete medium, and maintained at 33° C. For generation of homogeneous cultures of B. burgdorferi or B. garinii, bacterial cells were inoculated and maintained in a shaking incubator at 33° C. and 250 rpm, where there is no biofilm formation (Sapi et al., 2011; supported by own observation). For generation of biofilm-like colonies of B. burgdorferi or B. garinii, bacterial cells were inoculated in four-well chambers (BD Biosciences, Sparks, Md.) coated with rat-tail collagen type I and incubated for 1 week without shaking.
(§3) Evaluation of test compounds/mixtures on bacterial biofilm. Qualitative effect of the individual test compounds and their mixtures against biofilm-like colonies of B. burgdorferi and B. garinii was evaluated using commonly used and well accepted crystal violet (CV) staining method, according to protocol provided by Sapi et al. Briefly, 1×10^7 bacterial cells/mL from homogeneous cultures of spirochetes were grown on extracellular matrix proteins (i.e., collagen type I) coated four-well chambers and incubated for 1 week.
(§4) After the 1 week of incubation, biofilm-like colonies were treated with various compounds/mixtures. Control wells were treated with ethanol (i.e., 0.075-0.3 mg/ml) alone. For doxycycline, as a positive control, the final used concentration was 0.03% (v/v). The chambers were then incubated at 33° C. for 72 hours. The whole experiment was repeated three times for each strain and each concentration. Next, all wells were fixed with 500 μL of cold methanol-formalin (1:1) for 30 minutes and stained with 1 mL of crystal violet (0.1%) for 10 minutes. The biofilm-like colonies were carefully washed three times with 1×PBS and 1 mL of methanol was added to each well to extract a dye, which was measured at 595 nm wavelength.

[2] = system: persistent (biofilm) form of Borrelia burgdorferi; experiment: as above; type: cell-based, Borrelia burgdorferi B31; conditions: for efficacy against biofilm compared with combinations (Mix 1 and Mix 2): individual ingredient 0.075 mg/ml; for susceptibility of biofilm: 0.3 mg/ml, 72 hours
Experimental: as §1, §2, §3, §4

[3] = system: active (spirochete) form of Borrelia burgdorferi; experiment: bacteriostatic/bactericidal effect on spirochetes, LIVE/DEAD BacLight (SYTO9/IP) fluorescence; type: cell-based, Borrelia burgdorferi B31; conditions: individual compound 0.3 mg/ml
Experimental: as §1, with “So far, Borrelia burgdorferi has been found in ticks from North America and Eurasia, while Borrelia garinii only in ticks in Eurasia.” left out
(§5) Evaluation of bacteriostatic and bactericidal effect of individual test compounds and their mixtures on test microorganisms. To determine what compound and/or mixture will have the bacteriostatic and/or bactericidal effect a fluorescence method was used according to Sapi et al. Briefly, 5×10^6 bacterial cells/mL of the homogenous bacterial suspension was inoculated into each sterile 1.8 mL test tightly caps screwed tubes containing 1 mL BSK-H medium, supplemented with the test compound/mixture of interest. […] The tubes were then incubated at 33° C. and viability was monitored at regular intervals for up to 72 hours. […]

[4] = system: active (spirochete) form of Borrelia garinii; experiment: as above; type: cell-based, Borrelia garinii CIP103362; conditions: individual compound 0.3 mg/ml
Experimental: as §1, with “So far, Borrelia burgdorferi has been found in ticks from North America and Eurasia, while Borrelia garinii only in ticks in Eurasia.” left out
as §5

Compound	efficacy against biofilm compared with combinations (Mix 1 and Mix 2) [1]	efficacy against biofilm compared with combinations (Mix 1 and Mix 2) [2]	bactericidal effect ([3]; after 6 hours of incubation)	bactericidal effect ([3]; after 24 hours of incubation)	susceptibility of biofilm [1]	susceptibility of biofilm [2]	bactericidal effect ([4]; after 6 hours of incubation)	bactericidal effect ([4]; after 24 hours of incubation)
C=C(C)[C@@H]1CC=C(C)C(=O)C1 [R-carvone]	lower efficacy against biofilm than their combinations	lower efficacy against biofilm than their combinations						
C=CCc1ccc(O)c(OC)c1 [eugenol]	lower efficacy against biofilm than their combinations	lower efficacy against biofilm than their combinations	50%	100%	susceptible	susceptible	50%	100%
CCCCC/C=C\C/C=C\CCCCCCCC(=O)O [linoleic acid]	lower efficacy against biofilm than their combinations	lower efficacy against biofilm than their combinations						
CC(C)=CCCC(C)=CC=O [citral]	lower efficacy against biofilm than their combinations	lower efficacy against biofilm than their combinations			susceptible	susceptible		
